System: UMUC-10 cell line
Experiment: Cell viability (CELLTITER-GLO) of bladder cancer cell line treated with erlotinib
Format: cell-based
Conditions: UMUC-10 bladder cancer cell line; 72 hours; 3-fold dilution series starting with a 5 uM dose; FIG. 11G
Text: Bladder cancer cell lines were obtained from the American Type Culture Collection (ATCC, Manassas, Va.) or from the Deutsche Sammlung von Mikroorganismen and Zellkulturen GmbH (DSMZ, Braunschweig, Germany). Cell lines were archived at an early passage in the Genentech cell bank and authenticated either by a multiplex short tandem repeat assay or as previously described (O'Brien et al. Clin. Cancer Res. 16(14): 3670-3683, 2010). All cell lines were maintained in RPMI 1640 or DMEM supplemented with 10% fetal bovine serum (Sigma, St. Louis, Mo.), nonessential amino acids, and 2 mmol/L L-glutamine.
Details of its structure, selectivity, and biological properties have been previously described (Stamos et al. J. Biol. Chem. 277(48): 46265-46272, 2002). Cell viability studies were carried out as previously described (O'Brien et al. Clin. Cancer Res. 16(14): 3670-3683, 2010). Cells were plated in quadruplicate at a density of 2,500 cells per well in 384-well plates in normal growth medium and allowed to adhere overnight. […] Cell viability was measured 72 hours later using the […]-GLO® Luminescent Cell Viability Assay (Promega, Madison, Wis.). The percent viability at each concentration was calculated compared to the control treated only with DMSO.

C#Cc1cccc(Nc2ncnc3cc(OCCOC)c(OCCOC)cc23)c1 [erlotinib, [6,7-bis(2-methoxyethoxy)-4-quinazolin-4-yl]-(3-ethynylphenyl) amine]
growth inhibition (GI): > 25%

Source: patent US20220267864A1, “THERAPEUTIC, DIAGNOSTIC, AND PROGNOSTIC METHODS FOR CANCER” (Genentech, Inc., priority 2014, published 2022)
